Measured values reported in patent US20230126391A1, “ALPHA-METHYL-SUBSTITUTED DIAZABICYCLO[4.3.1] DECANE DERIVATIVES FOR TREATMENT OF PSYCHIATRIC DISORDERS” (priority 2020, published 2023).
Like-named read-outs stand apart in the source and are kept apart here.

Legend:
FKBP12 = FKBP12 (Homo sapiens, UniProt P62942); assay: FP assay, binding to human FKBPs (Table 1); conditions: fluorescence polarization assay
FKBP12.6 = FKBP12.6 (Homo sapiens, UniProt P68106); assay: FP assay, binding to human FKBPs (Table 1); conditions: fluorescence polarization assay
FKBP12.6, sequence (P68106 whole entry): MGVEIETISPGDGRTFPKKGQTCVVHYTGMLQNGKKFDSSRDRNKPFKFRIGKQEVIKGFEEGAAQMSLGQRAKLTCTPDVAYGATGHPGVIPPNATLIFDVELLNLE

FKBP51 = target: T1, FKBP51 (Homo sapiens, UniProt Q13451); assay: FP assay, binding to human FKBPs (Table 1); conditions: fluorescence polarization assay
T1 sequence (Q13451 1-457): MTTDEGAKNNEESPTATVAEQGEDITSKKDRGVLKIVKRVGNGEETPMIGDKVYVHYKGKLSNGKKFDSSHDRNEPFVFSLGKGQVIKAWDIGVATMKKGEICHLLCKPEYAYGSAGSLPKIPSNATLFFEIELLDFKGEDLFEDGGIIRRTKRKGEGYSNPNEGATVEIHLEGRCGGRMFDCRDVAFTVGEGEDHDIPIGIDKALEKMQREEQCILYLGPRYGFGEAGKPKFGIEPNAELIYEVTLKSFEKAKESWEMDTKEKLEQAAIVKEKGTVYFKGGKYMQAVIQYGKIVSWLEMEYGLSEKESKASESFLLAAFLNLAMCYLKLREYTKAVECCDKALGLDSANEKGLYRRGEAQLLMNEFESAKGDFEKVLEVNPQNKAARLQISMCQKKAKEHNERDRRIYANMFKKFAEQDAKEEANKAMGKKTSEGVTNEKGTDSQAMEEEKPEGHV

FKBP52 = target: T2, FKBP52 (Homo sapiens, UniProt Q02790); assay: FP assay, binding to human FKBPs (Table 1); conditions: fluorescence polarization assay
T2 sequence (Q02790 1-459): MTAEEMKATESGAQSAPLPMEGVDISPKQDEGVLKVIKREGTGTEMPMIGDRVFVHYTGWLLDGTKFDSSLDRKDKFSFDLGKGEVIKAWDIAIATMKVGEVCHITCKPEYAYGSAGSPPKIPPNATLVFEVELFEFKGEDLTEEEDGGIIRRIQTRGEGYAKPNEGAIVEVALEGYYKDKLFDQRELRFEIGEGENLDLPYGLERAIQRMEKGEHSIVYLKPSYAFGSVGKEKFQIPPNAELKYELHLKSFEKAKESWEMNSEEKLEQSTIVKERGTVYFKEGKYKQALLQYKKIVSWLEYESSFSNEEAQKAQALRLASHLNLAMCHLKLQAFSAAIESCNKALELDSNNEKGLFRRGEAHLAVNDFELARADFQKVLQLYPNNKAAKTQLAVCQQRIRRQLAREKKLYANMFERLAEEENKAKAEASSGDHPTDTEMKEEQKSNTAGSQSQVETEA

LpMip = LpMip (Legionella pneumophila subsp. pneumophila, UniProt Q5ZXE0); assay: biochemical; type: binding
LpMip, sequence (Q5ZXE0 21-233 limits assumed): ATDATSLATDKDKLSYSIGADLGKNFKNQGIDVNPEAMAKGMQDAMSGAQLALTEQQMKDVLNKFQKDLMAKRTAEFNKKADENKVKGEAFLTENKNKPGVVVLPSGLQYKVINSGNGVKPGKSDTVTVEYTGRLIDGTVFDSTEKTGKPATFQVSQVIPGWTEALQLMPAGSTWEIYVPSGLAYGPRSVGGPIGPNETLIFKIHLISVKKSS

FKBP12, sequence (P62942 whole entry): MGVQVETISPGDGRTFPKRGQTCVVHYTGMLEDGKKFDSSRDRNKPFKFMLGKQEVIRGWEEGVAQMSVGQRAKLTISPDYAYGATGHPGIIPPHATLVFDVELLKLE

C=C[C@H]1CN([C@@H](C)c2ccccn2)C(=O)[C@@H]2CCC[C@H]1N2S(=O)(=O)c1ccc2ncsc2c1 [7d, (1S,5S,6R)-10-(benzo[d]thiazol-6-ylsulfonyl)-3-((S)-1-(pyridin-2-yl)ethyl)-5-vinyl-3,10-diazabicyclo[4.3.1]decan-2-one]
Ki (FKBP12): 2.2 nM
Ki (FKBP12.6): 0.9 nM
Ki (FKBP51): 33 nM
Ki (FKBP52): 29 nM
Ki (LpMip): 366 nM

C=C[C@H]1CN(CCO)C(=O)[C@@H]2CCC[C@H]1N2S(=O)(=O)c1cc(Cl)cc(Cl)c1 [20a]
Ki (FKBP12): 20 nM
Ki (FKBP51): 403 nM
Ki (FKBP52): 387 nM

C=C[C@H]1CN([C@H](C)CO)C(=O)[C@@H]2CCC[C@H]1N2S(=O)(=O)c1ccc2ncsc2c1 [17b]
Ki (FKBP12): > 5000 nM
Ki (FKBP51): > 5000 nM
Ki (FKBP52): > 5000 nM

CC[C@H]1CN(Cc2ccccn2)C(=O)[C@@H]2CCC[C@H]1N2S(=O)(=O)c1ccc2ncsc2c1 [26a]
Ki (FKBP12): 6.5 nM
Ki (FKBP12.6): 5.2 nM
Ki (FKBP51): 410 nM
Ki (FKBP52): 285 nM
Ki (LpMip; read-out: Ki LpMip): 5150 nM

C=C[C@H]1CN([C@@H](C)C(=O)O)C(=O)[C@@H]2CCC[C@H]1N2S(=O)(=O)c1cc(Cl)cc(Cl)c1 [21b, (2S)-2-((1S,5S,6R)-10-((3,5-dichlorophenyl)sulfonyl)-2-oxo-5-vinyl-3,10-diazabicyclo[4.3.1]decan-3-yl)propanoic acid]
Ki (FKBP12): 13 nM
Ki (FKBP51): 22 nM
Ki (FKBP52): 80 nM
Ki (LpMip): 284 nM

C=C[C@H]1CN(CCOC)C(=O)[C@@H]2CCC[C@H]1N2S(=O)(=O)c1cc(Cl)cc(Cl)c1 [22a]
Ki (FKBP12): 59 nM
Ki (FKBP51): 529 nM
Ki (FKBP52): 377 nM

C=C[C@H]1CN(CC(=O)O)C(=O)[C@@H]2CCC[C@H]1N2S(=O)(=O)c1cc(Cl)cc(Cl)c1 [21a]
Ki (FKBP12): 33.4 nM
Ki (FKBP51): 172 nM
Ki (FKBP52): 320 nM
Ki (LpMip; read-out: Ki LpMip): 5150 nM

COC[C@H]1CN([C@@H](C)c2ccccn2)C(=O)[C@@H]2CCC[C@H]1N2S(=O)(=O)c1cc(Cl)cc(Cl)c1 [24b, (1S,5S,6R)-10-((3,5-dichlorophenyl)sulfonyl)-5-(methoxymethyl)-3-((S)-1-(pyridin-2-yl)ethyl)-3,10-diazabicyclo[4.3.1]decan-2-one]
Ki (FKBP12): 0.04 nM
Ki (FKBP12.6): 0.41 nM
Ki (FKBP51): 0.83 nM
Ki (FKBP52): 0.35 nM
Ki (LpMip): 36 nM

CC[C@H]1CN([C@@H](C)c2ccccn2)C(=O)[C@@H]2CCC[C@H]1N2S(=O)(=O)c1ccc2ncsc2c1 [26b, (1S,5S,6R)-10-(benzo[d]thiazol-6-ylsulfonyl)-5-ethyl-3-((S)-1-(pyridin-2-yl)ethyl)-3,10-diazabicyclo[4.3.1]decan-2-one]
Ki (FKBP12): 1.9 nM
Ki (FKBP12.6): 0.6 nM
Ki (FKBP51): 27 nM
Ki (FKBP52): 22 nM
Ki (LpMip): 284 nM

C=C[C@H]1CN([C@H](C)COC)C(=O)[C@@H]2CCC[C@H]1N2S(=O)(=O)c1cc(Cl)cc(Cl)c1 [22c]
Ki (FKBP12): > 5000 nM
Ki (FKBP51): > 5000 nM
Ki (FKBP52): > 5000 nM

C[C@@H](c1ccccn1)N1C[C@H](CO)[C@H]2CCC[C@@H](C1=O)N2S(=O)(=O)c1ccc2ncsc2c1 [25b, (1S,5S,6R)-10-(benzo[d]thiazol-6-ylsulfonyl)-5-(hydroxymethyl)-3-((S)-1-(pyridin-2-yl)ethyl)-3,10-diazabicyclo[4.3.1]decan-2-one]
Ki (FKBP12): 1.5 nM
Ki (FKBP12.6): 0.7 nM
Ki (LpMip): 237 nM

O=C1[C@@H]2CCC[C@H]([C@@H](CO)CN1Cc1ccccn1)N2S(=O)(=O)c1ccc2ncsc2c1 [25a]
Ki (FKBP12): 5.5 nM
Ki (FKBP12.6): 3.8 nM
Ki (FKBP51): 283 nM
Ki (FKBP52): 190 nM
Ki (LpMip; read-out: Ki LpMip): 3980 nM

C=C[C@H]1CN([C@@H](C)COCc2ccccc2)C(=O)[C@@H]2CCC[C@H]1N2S(=O)(=O)c1cc(Cl)cc(Cl)c1 [15a, (1S,5S,6R)-3-((S)-1-(benzyloxy)propan-2-yl)-10-((3,5-dichlorophenyl)sulfonyl)-5-vinyl-3,10-diazabicyclo[4.3.1]decan-2-one]
Ki (FKBP12): 58 nM
Ki (FKBP51): 1080 nM
Ki (FKBP52): 1030 nM

O=C1[C@@H]2CCC[C@H]([C@@H](CO)CN1Cc1ccccn1)N2S(=O)(=O)c1cc(Cl)cc(Cl)c1 [23a]
Ki (FKBP12): 0.35 nM
Ki (FKBP12.6): 3.4 nM
Ki (FKBP51): 33 nM
Ki (FKBP52): 19 nM
Ki (LpMip; read-out: Ki LpMip): 467 nM

C=C[C@H]1CN([C@@H](C)c2ccccn2)C(=O)[C@@H]2CCC[C@H]1N2S(=O)(=O)c1cc(Cl)cc(Cl)c1 [6d, (1S,5S,6R)-10-((3,5-dichlorophenyl)sulfonyl)-3-((S)-1-(pyridin-2-yl)ethyl)-5-vinyl-3,10-diazabicyclo[4.3.1]decan-2-one]
Ki (FKBP12): 0.15 nM
Ki (FKBP12.6): 0.41 nM
Ki (FKBP51): 2.6 nM
Ki (FKBP52): 2.2 nM
Ki (LpMip): 171 nM

C=C[C@H]1CN([C@@H](C)COC)C(=O)[C@@H]2CCC[C@H]1N2S(=O)(=O)c1cc(Cl)cc(Cl)c1 [22b, (1S,5S,6R)-10-((3,5-dichlorophenyl)sulfonyl)-3-((S)-1-methoxypropan-2-yl)-5-vinyl-3,10-diazabicyclo[4.3.1]decan-2-one]
Ki (FKBP12): 14 nM
Ki (FKBP51): 204 nM
Ki (FKBP52): 205 nM

C=C[C@H]1CN([C@@H](C)c2cn(-c3ccc(OC)cc3)nn2)C(=O)[C@@H]2CCC[C@H]1N2S(=O)(=O)c1cc(Cl)cc(Cl)c1 [19b, (1S,5S,6R)-10-((3,5-dichlorophenyl)sulfonyl)-3-((S)-1-(1-(4-methoxyphenyl)-1H-1,2,3-triazol-4-yl)ethyl)-5-vinyl-3,10-diazabicyclo[4.3.1]decan-2-one]
Ki (FKBP12): 4.3 nM
Ki (FKBP12.6): 16 nM
Ki (FKBP52): 91 nM

C=C[C@H]1CN([C@H](C)c2cn(-c3ccc(OC)cc3)nn2)C(=O)[C@@H]2CCC[C@H]1N2S(=O)(=O)c1cc(Cl)cc(Cl)c1 [19c]
Ki (FKBP12): 233 nM
Ki (FKBP12.6): 390 nM
Ki (FKBP52): 1030 nM

C=C[C@H]1CN([C@H](C)CO)C(=O)[C@@H]2CCC[C@H]1N2S(=O)(=O)c1cc(Cl)cc(Cl)c1 [20c]
Ki (FKBP12): > 5000 nM
Ki (FKBP51): > 5000 nM
Ki (FKBP52): > 5000 nM

C[C@@H](c1ccccn1)N1C[C@H](CO)[C@H]2CCC[C@@H](C1=O)N2S(=O)(=O)c1cc(Cl)cc(Cl)c1 [23b, (1S,5S,6R)-10-((3,5-dichlorophenyl)sulfonyl)-5-(hydroxymethyl)-3-((S)-1-(pyridin-2-yl)ethyl)-3,10-diazabicyclo[4.3.1]decan-2-one]
Ki (FKBP12): 0.06 nM
Ki (FKBP12.6): 0.31 nM
Ki (FKBP51): 1.9 nM
Ki (FKBP52): 1.2 nM
Ki (LpMip): 36 nM

C=C[C@H]1CN([C@@H](C)CO)C(=O)[C@@H]2CCC[C@H]1N2S(=O)(=O)c1ccc2ncsc2c1 [17a, (1S,5S,6R)-10-(benzo[d]thiazol-6-ylsulfonyl)-3-((S)-1-hydroxypropan-2-yl)-5-vinyl-3,10-diazabicyclo[4.3.1]decan-2-one]
Ki (FKBP12): 21 nM
Ki (FKBP51): 110 nM
Ki (FKBP52): 102 nM

C=C[C@H]1CN([C@H](C)c2ccccn2)C(=O)[C@@H]2CCC[C@H]1N2S(=O)(=O)c1cc(Cl)cc(Cl)c1 [6e]
Ki (FKBP12): 130 nM
Ki (FKBP12.6): 812 nM
Ki (FKBP51): > 1000 nM
Ki (FKBP52): > 1000 nM

C=C[C@H]1CN(Cc2cn(-c3ccc(OC)cc3)nn2)C(=O)[C@@H]2CCC[C@H]1N2S(=O)(=O)c1cc(Cl)cc(Cl)c1 [19a]
Ki (FKBP12): 15 nM
Ki (FKBP12.6): 16 nM
Ki (FKBP52): 361 nM

C=C[C@H]1CN([C@H](C)C(=O)O)C(=O)[C@@H]2CCC[C@H]1N2S(=O)(=O)c1cc(Cl)cc(Cl)c1 [21c]
Ki (FKBP12): 48 nM
Ki (FKBP51): 123 nM
Ki (FKBP52): 296 nM

C=C[C@H]1CN([C@H](C)c2ccccn2)C(=O)[C@@H]2CCC[C@H]1N2S(=O)(=O)c1ccc2ncsc2c1 [7e]
Ki (FKBP12): 240 nM
Ki (FKBP12.6): 157 nM
Ki (FKBP51): 4550 nM
Ki (FKBP52): 3450 nM

C=C[C@H]1CN([C@@H](C)CO)C(=O)[C@@H]2CCC[C@H]1N2S(=O)(=O)c1cc(Cl)cc(Cl)c1 [20b, (1S,5S,6R)-10-((3,5-dichlorophenyl)sulfonyl)-3-((S)-1-hydroxypropan-2-yl)-5-vinyl-3,10-diazabicyclo[4.3.1]decan-2-one]
Ki (FKBP12): 3.5 nM
Ki (FKBP51): 107 nM
Ki (FKBP52): 116 nM

C=C[C@H]1CN([C@H](C)COCc2ccccc2)C(=O)[C@@H]2CCC[C@H]1N2S(=O)(=O)c1ccc2ncsc2c1 [16b]
Ki (FKBP12): > 5000 nM
Ki (FKBP51): > 5000 nM
Ki (FKBP52): > 5000 nM

C=C[C@H]1CN([C@@H](C)COCc2ccccc2)C(=O)[C@@H]2CCC[C@H]1N2S(=O)(=O)c1ccc2ncsc2c1 [16a, (1S,5S,6R)-10-(benzo[d]thiazol-6-ylsulfonyl)-3-((S)-1-(benzyloxy)propan-2-yl)-5-vinyl-3,10-diazabicyclo[4.3.1]decan-2-one]
Ki (FKBP12): 28 nM
Ki (FKBP51): 263 nM
Ki (FKBP52): 316 nM

C=C[C@H]1CN([C@H](C)COCc2ccccc2)C(=O)[C@@H]2CCC[C@H]1N2S(=O)(=O)c1cc(Cl)cc(Cl)c1 [15b]
Ki (FKBP12): > 5000 nM
Ki (FKBP51): > 5000 nM
Ki (FKBP52): > 5000 nM
